# Values joined by “and” are separate entries in the source; they are usually repeats but may differ in a detail not shown here. Identical values can stand only once. Toxic doses and inconclusive results are not listed.
# System: BDF1 mice, P388 leukemia ip, median survival T/C
# Assay: NCI In Vivo Anticancer Drug Screen. Data for tumor model P388 Leukemia (intraperitoneal) in B6D2F1 (BDF1) mice
# Settings: endpoint: median survival time, higher = longer survival
# Method in brief: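 Transplantable tumour in mice; compound vs vehicle dosing; survival scored; ratio of treated to control reported.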
smiles,measurement,setting,value
COC(=O)[C@@]12OC[C@]34[C@H]([C@@H](O)[C@@H]1O)[C@@]1(C)CC(=O)C(O)=C(C)[C@@H]1C[C@H]3OC(=O)[C@H](OC(=O)/C=C(\C)C(C)C)[C@@H]24,T/C,"dose: 0.03 mg/kg/injection, schedule: Q01DX009 (ip), vehicle: saline + alcohol",151 % of control
same,T/C,"dose: 0.03 mg/kg/injection, schedule: Q01DX009 (ip), vehicle: saline",155 % of control
same,T/C,"dose: 0.05 mg/kg/injection, schedule: Q01DX005 (iv), vehicle: saline + alcohol",100 % of control
same,T/C,"dose: 0.05 mg/kg/injection, schedule: Q01DX009 (ip), vehicle: saline + alcohol",150 % of control
same,T/C,"dose: 0.06 mg/kg/injection, schedule: Q01DX009 (ip), vehicle: other",153 % of control
same,T/C,"dose: 0.06 mg/kg/injection, schedule: Q01DX009 (ip), vehicle: saline",170 % of control
same,T/C,"dose: 0.06 mg/kg/injection, schedule: Q01DX009 (sc), vehicle: saline + alcohol",100 % of control
same,T/C,"dose: 0.06 mg/kg/injection, schedule: Q03HX024 (ip), vehicle: other",155 % of control
same,T/C,"dose: 0.06 mg/kg/injection, schedule: Q03HX024 (ip), vehicle: saline + alcohol",152 % of control and 153 % of control
same,T/C,"dose: 0.1 mg/kg/injection, schedule: Q01DX005 (iv), vehicle: saline + alcohol",100 % of control
same,T/C,"dose: 0.1 mg/kg/injection, schedule: Q01DX009 (ip), vehicle: saline + alcohol",158 % of control
same,T/C,"dose: 0.12 mg/kg/injection, schedule: Q01DX009 (ip), vehicle: other",177 % of control
same,T/C,"dose: 0.12 mg/kg/injection, schedule: Q01DX009 (ip), vehicle: saline + alcohol",158 % of control
same,T/C,"dose: 0.12 mg/kg/injection, schedule: Q01DX009 (ip), vehicle: saline with Tween-80",151 % of control
same,T/C,"dose: 0.12 mg/kg/injection, schedule: Q01DX009 (ip), vehicle: saline",180 % of control
same,T/C,"dose: 0.12 mg/kg/injection, schedule: Q03HX024 (ip), vehicle: other",166 % of control
same,T/C,"dose: 0.12 mg/kg/injection, schedule: Q03HX024 (ip), vehicle: saline + alcohol",157 % of control
same,T/C,"dose: 0.12 mg/kg/injection, schedule: Q03HX024 (ip), vehicle: saline with Tween-80",150 % of control
same,T/C,"dose: 0.13 mg/kg/injection, schedule: Q01DX009 (ip), vehicle: saline + alcohol",158 % of control and 164 % of control and 173 % of control
same,T/C,"dose: 0.13 mg/kg/injection, schedule: Q01DX009 (ip), vehicle: saline with Tween-80",161 % of control
same,T/C,"dose: 0.13 mg/kg/injection, schedule: Q01DX009 (sc), vehicle: saline + alcohol",108 % of control
same,T/C,"dose: 0.13 mg/kg/injection, schedule: Q03HX016 (ip), vehicle: saline + alcohol",152 % of control
same,T/C,"dose: 0.13 mg/kg/injection, schedule: Q03HX024 (ip), vehicle: saline + alcohol",159 % of control
same,T/C,"dose: 0.2 mg/kg/injection, schedule: Q01DX005 (iv), vehicle: saline + alcohol",100 % of control
same,T/C,"dose: 0.2 mg/kg/injection, schedule: Q01DX009 (ip), vehicle: saline + alcohol",173 % of control
same,T/C,"dose: 0.25 mg/kg/injection, schedule: Q01DX009 (ip), vehicle: other",171 % of control
same,T/C,"dose: 0.25 mg/kg/injection, schedule: Q01DX009 (ip), vehicle: saline with Tween-80",183 % of control
same,T/C,"dose: 0.25 mg/kg/injection, schedule: Q01DX009 (sc), vehicle: saline + alcohol",108 % of control
same,T/C,"dose: 0.25 mg/kg/injection, schedule: Q03HX016 (ip), vehicle: saline + alcohol",165 % of control
same,T/C,"dose: 0.25 mg/kg/injection, schedule: Q03HX024 (ip), vehicle: saline with Tween-80",169 % of control
same,T/C,"dose: 0.25 mg/kg/injection, schedule: Q04DX003 (ip), vehicle: saline + alcohol",122 % of control
same,T/C,"dose: 0.25 mg/kg/injection, schedule: Q04DX003 (ip), vehicle: saline with Tween-80",120 % of control
same,T/C,"dose: 0.4 mg/kg/injection, schedule: Q01DX005 (iv), vehicle: saline + alcohol",107 % of control
same,T/C,"dose: 0.4 mg/kg/injection, schedule: Q01DX009 (ip), vehicle: saline + alcohol",185 % of control
same,T/C,"dose: 0.44 mg/kg/injection, schedule: Q01DX009 (ip), vehicle: saline with Tween-80",186 % of control
same,T/C,"dose: 0.5 mg/kg/injection, schedule: Q01DX009 (ip), vehicle: other",177 % of control
same,T/C,"dose: 0.5 mg/kg/injection, schedule: Q01DX009 (ip), vehicle: saline with Tween-80",175 % of control
same,T/C,"dose: 0.5 mg/kg/injection, schedule: Q01DX009 (ip), vehicle: saline",150 % of control
same,T/C,"dose: 0.5 mg/kg/injection, schedule: Q01DX009 (oral), vehicle: saline + alcohol",101 % of control and 110 % of control
same,T/C,"dose: 0.5 mg/kg/injection, schedule: Q01DX009 (sc), vehicle: saline + alcohol",116 % of control
same,T/C,"dose: 0.5 mg/kg/injection, schedule: Q04DX003 (ip), vehicle: saline + alcohol",120 % of control
same,T/C,"dose: 0.5 mg/kg/injection, schedule: Q04DX003 (ip), vehicle: saline with Tween-80",117 % of control
same,T/C,"dose: 0.5 mg/kg/injection, schedule: Q08DX002 (ip), vehicle: saline + alcohol",109 % of control
same,T/C,"dose: 0.5 mg/kg/injection, schedule: Q08DX002 (ip), vehicle: saline with Tween-80",116 % of control
same,T/C,"dose: 0.65 mg/kg/injection, schedule: Q04DX003 (ip), vehicle: saline + alcohol",123 % of control
same,T/C,"dose: 0.67 mg/kg/injection, schedule: Q01DX009 (ip), vehicle: saline with Tween-80",169 % of control
same,T/C,"dose: 0.8 mg/kg/injection, schedule: Q01DX005 (ip), vehicle: saline + alcohol",164 % of control
same,T/C,"dose: 0.8 mg/kg/injection, schedule: Q01DX005 (iv), vehicle: saline + alcohol",106 % of control and 119 % of control
same,T/C,"dose: 1.0 mg/kg/injection, schedule: Q01DX001 (ip), vehicle: saline + alcohol",107 % of control
same,T/C,"dose: 1.0 mg/kg/injection, schedule: Q01DX001 (ip), vehicle: saline with Tween-80",112 % of control
same,T/C,"dose: 1.0 mg/kg/injection, schedule: Q01DX001 (oral), vehicle: saline + alcohol",100 % of control and 101 % of control
same,T/C,"dose: 1.0 mg/kg/injection, schedule: Q01DX001 (sc), vehicle: saline + alcohol",114 % of control
same,T/C,"dose: 1.0 mg/kg/injection, schedule: Q01DX009 (ip), vehicle: saline",166 % of control
same,T/C,"dose: 1.0 mg/kg/injection, schedule: Q01DX009 (oral), vehicle: saline + alcohol",105 % of control and 107 % of control
same,T/C,"dose: 1.0 mg/kg/injection, schedule: Q04DX003 (ip), vehicle: saline + alcohol",123 % of control
same,T/C,"dose: 1.0 mg/kg/injection, schedule: Q04DX003 (ip), vehicle: saline with Tween-80",123 % of control
same,T/C,"dose: 1.0 mg/kg/injection, schedule: Q08DX002 (ip), vehicle: saline + alcohol",115 % of control
same,T/C,"dose: 1.0 mg/kg/injection, schedule: Q08DX002 (ip), vehicle: saline with Tween-80",99 % of control
same,T/C,"dose: 1.08 mg/kg/injection, schedule: Q04DX003 (ip), vehicle: saline + alcohol",123 % of control
same,T/C,"dose: 1.5 mg/kg/injection, schedule: Q01DX009 (ip), vehicle: saline with Tween-80",186 % of control
same,T/C,"dose: 1.6 mg/kg/injection, schedule: Q01DX005 (ip), vehicle: saline + alcohol",182 % of control
same,T/C,"dose: 1.8 mg/kg/injection, schedule: Q04DX003 (ip), vehicle: saline + alcohol",110 % of control and 123 % of control
same,T/C,"dose: 2.0 mg/kg/injection, schedule: Q01DX001 (ip), vehicle: saline + alcohol",106 % of control
same,T/C,"dose: 2.0 mg/kg/injection, schedule: Q01DX001 (ip), vehicle: saline with Tween-80",112 % of control
same,T/C,"dose: 2.0 mg/kg/injection, schedule: Q01DX001 (oral), vehicle: saline + alcohol",99 % of control and 101 % of control
same,T/C,"dose: 2.0 mg/kg/injection, schedule: Q01DX001 (sc), vehicle: saline + alcohol",113 % of control
same,T/C,"dose: 2.0 mg/kg/injection, schedule: Q01DX009 (ip), vehicle: saline with Tween-80",97 % of control
same,T/C,"dose: 2.0 mg/kg/injection, schedule: Q01DX009 (oral), vehicle: saline + alcohol",96 % of control and 111 % of control
same,T/C,"dose: 2.0 mg/kg/injection, schedule: Q01DX009 (sc), vehicle: saline + alcohol",99 % of control
same,T/C,"dose: 2.0 mg/kg/injection, schedule: Q08DX002 (ip), vehicle: saline + alcohol",99 % of control
same,T/C,"dose: 2.0 mg/kg/injection, schedule: Q08DX002 (ip), vehicle: saline with Tween-80",91 % of control
same,T/C,"dose: 3.2 mg/kg/injection, schedule: Q01DX005 (iv), vehicle: saline + alcohol",110 % of control
same,T/C,"dose: 4.0 mg/kg/injection, schedule: Q01DX001 (oral), vehicle: saline + alcohol",101 % of control and 105 % of control
same,T/C,"dose: 4.0 mg/kg/injection, schedule: Q01DX009 (oral), vehicle: saline + alcohol",97 % of control and 115 % of control
same,T/C,"dose: 8.0 mg/kg/injection, schedule: Q01DX001 (oral), vehicle: saline + alcohol",98 % of control and 99 % of control
same,T/C,"dose: 45.0 micrograms/kg/injection, schedule: Q01DX009 (ip), vehicle: saline + alcohol",155 % of control
same,T/C,"dose: 90.0 micrograms/kg/injection, schedule: Q01DX009 (ip), vehicle: saline + alcohol",180 % of control
same,T/C,"dose: 177.0 micrograms/kg/injection, schedule: Q01DX009 (ip), vehicle: saline + alcohol",190 % of control
same,T/C,"dose: 389.0 micrograms/kg/injection, schedule: Q01DX004 (ip), vehicle: saline + alcohol",159 % of control
same,T/C,"dose: 400.0 micrograms/kg/injection, schedule: Q01DX009 (ip), vehicle: saline + alcohol",185 % of control
same,T/C,"dose: 432.0 micrograms/kg/injection, schedule: Q01DX009 (ip), vehicle: saline + alcohol",180 % of control and 181 % of control
same,T/C,"dose: 720.0 micrograms/kg/injection, schedule: Q01DX009 (ip), vehicle: saline + alcohol",182 % of control
same,T/C,"dose: 1200.0 micrograms/kg/injection, schedule: Q01DX009 (ip), vehicle: saline + alcohol",179 % of control
same,T/C,"dose: 2000.0 micrograms/kg/injection, schedule: Q01DX009 (ip), vehicle: saline + alcohol",189 % of control

# Reference: PubChem BioAssay AID328 (DTP/NCI, 2004)
